Reference: BindingDB's records for doi:10.1016/j.bmcl.2019.04.027 (Gilead Sciences, 2019)

Tests used:
[1] = Inhibition of NS5A L31M mutant in HCV genotype 1a infected in human HuH7 replicon cells assessed as reduction in viral replication after 3 days by luciferase reporter gene assay
[2] = Inhibition of NS5A in HCV genotype 3a S52 infected in human HuH7 replicon cells assessed as reduction in viral replication after 3 days by luciferase reporter gene assay
[3] = Inhibition of NS5A in HCV genotype 2b MD2b-1 infected in human HuH7 replicon cells assessed as reduction in viral replication after 3 days by luciferase reporter gene assay
[4] = Inhibition of NS5A K44R mutant in HCV genotype 2a infected in human HuH7 replicon cells assessed as reduction in viral replication after 3 days by luciferase reporter gene assay
[5] = Inhibition of NS5A in wild type HCV genotype 3a infected in human HuH7 replicon cells assessed as reduction in viral replication after 3 days by luciferase reporter gene assay
[6] = Inhibition of NS5A in HCV genotype 2a J6 infected in human HuH7 replicon cells assessed as reduction in viral replication after 3 days by luciferase reporter gene assay
[7] = Inhibition of NS5A Q30E mutant in HCV genotype 1a infected in human HuH7 replicon cells assessed as reduction in viral replication after 3 days by luciferase reporter gene assay
[8] = Inhibition of NS5A M28T mutant in HCV genotype 1a infected in human HuH7 replicon cells assessed as reduction in viral replication after 3 days by luciferase reporter gene assay
[9] = Inhibition of NS5A Y93H mutant in HCV genotype 1b infected in human HuH7 replicon cells assessed as reduction in viral replication after 3 days by luciferase reporter gene assay
[10] = Inhibition of NS5A in HCV genotype 5a SA13 infected in human HuH7 replicon cells assessed as reduction in viral replication after 3 days by luciferase reporter gene assay
[11] = Inhibition of NS5A Q30H mutant in HCV genotype 1a infected in human HuH7 replicon cells assessed as reduction in viral replication after 3 days by luciferase reporter gene assay
[12] = Inhibition of NS5A Q30R mutant in HCV genotype 1a infected in human HuH7 replicon cells assessed as reduction in viral replication after 3 days by luciferase reporter gene assay
[13] = Inhibition of NS5A R44K mutant in HCV genotype 2b infected in human HuH7 replicon cells assessed as reduction in viral replication after 3 days by luciferase reporter gene assay
[14] = Inhibition of NS5A in HCV genotype 1b Con1 infected in human HuH7 replicon cells assessed as reduction in viral replication after 3 days by luciferase reporter gene assay
[15] = Inhibition of NS5A in wild type HCV genotype 1a infected in human HuH7 replicon cells assessed as reduction in viral replication after 3 days by luciferase reporter gene assay
[16] = Inhibition of NS5A Y93H mutant in HCV genotype 1a infected in human HuH7 replicon cells assessed as reduction in viral replication after 3 days by luciferase reporter gene assay
[17] = Inhibition of NS5A in wild type HCV genotype 1b infected in human HuH7 replicon cells assessed as reduction in viral replication after 3 days by luciferase reporter gene assay
[18] = Inhibition of NS5A Y93H mutant in HCV genotype 3a infected in human HuH7 replicon cells assessed as reduction in viral replication after 3 days by luciferase reporter gene assay
[19] = Inhibition of NS5A N62S mutant in HCV genotype 2a infected in human HuH7 replicon cells assessed as reduction in viral replication after 3 days by luciferase reporter gene assay
[20] = Inhibition of NS5A in HCV genotype 6e D88 infected in human HuH7 replicon cells assessed as reduction in viral replication after 3 days by luciferase reporter gene assay
[21] = Inhibition of NS5A N62V mutant in HCV genotype 2a infected in human HuH7 replicon cells assessed as reduction in viral replication after 3 days by luciferase reporter gene assay
[22] = Inhibition of NS5A in HCV genotype 1a H77 infected in human HuH7 replicon cells assessed as reduction in viral replication after 3 days by luciferase reporter gene assay
[23] = Inhibition of NS5A A30K mutant in HCV genotype 3a infected in human HuH7 replicon cells assessed as reduction in viral replication after 3 days by luciferase reporter gene assay
[24] = Inhibition of NS5A P58S mutant in HCV genotype 2b infected in human HuH7 replicon cells assessed as reduction in viral replication after 3 days by luciferase reporter gene assay
[25] = Inhibition of NS5A in wild type HCV genotype 2b AY232738 infected in human HuH7 replicon cells assessed as reduction in viral replication after 3 days by luciferase reporter gene assay
[26] = Inhibition of NS5A in HCV genotype 4a ED43 infected in human HuH7 replicon cells assessed as reduction in viral replication after 3 days by luciferase reporter gene assay
[27] = Inhibition of NS5A in HCV genotype 6a HK6 infected in human HuH7 replicon cells assessed as reduction in viral replication after 3 days by luciferase reporter gene assay
[28] = Inhibition of NS5A in wild type HCV genotype 2b MD2b-1 infected in human HuH7 replicon cells assessed as reduction in viral replication after 3 days by luciferase reporter gene assay
[29] = Inhibition of NS5A Y93C mutant in HCV genotype 1a infected in human HuH7 replicon cells assessed as reduction in viral replication after 3 days by luciferase reporter gene assay
[30] = Inhibition of NS5A in HCV wild type genotype 2a infected in human HuH7 replicon cells assessed as reduction in viral replication after 3 days by luciferase reporter gene assay
[31] = Inhibition of NS5A in HCV genotype 2a JFH1 infected in human HuH7 replicon cells assessed as reduction in viral replication after 3 days by luciferase reporter gene assay
[32] = Inhibition of NS5A L31M mutant in HCV genotype 2a J6 (M31) infected in human HuH7 replicon cells assessed as reduction in viral replication after 3 days by luciferase reporter gene assay

Row | Structure (SMILES) | EC50 [1] [nM] | EC50 [2] [nM] | EC50 [3] [nM] | EC50 [4] [nM] | EC50 [5] [nM] | EC50 [6] [nM] | EC50 [7] [nM] | EC50 [8] [nM] | EC50 [9] [nM] | EC50 [10] [nM] | EC50 [11] [nM] | EC50 [12] [nM] | EC50 [13] [nM] | EC50 [14] [nM] | EC50 [15] [nM] | EC50 [16] [nM] | EC50 [17] [nM] | EC50 [18] [nM] | EC50 [19] [nM] | EC50 [20] [nM] | further results
1 | COC(=O)N[C@H](C(=O)N1CC2(CC2)C[C@H]1c1nc(-c2ccc3c(c2)C(F)(F)c2cc(-c4ccc5[nH]c([C@@H]6[C@H]7CC[C@H](C7)N6C(=O)[C@@H](NC(=O)OC)C(C)C)nc5c4)ccc2-3)c[nH]1)C(C)C [CHEBI:85089] | 17 | 168 | 530 | 164 | > 45 | 249 | 169 | 1.9 | 7.2 | 0.15 | 5.7 | 20 | 943 | 0.004 | 0.031 | 52 | 0.004 | > 89 | 123 | 264 | EC50 [21]: 222 nM; EC50 [22]: 0.031 nM; EC50 [23]: > 89 nM; EC50 [24]: 292 nM; EC50 [25]: 211 nM; EC50 [26]: 0.39 nM; EC50 [27]: 1.1 nM; EC50 [28]: 865 nM; EC50 [29]: 50 nM; EC50 [30]: 209 nM; EC50 [31]: 21 nM
2 | COC[C@H]1C[C@@H](c2nc(-c3ccc4c(c3)COc3cc5c(ccc6nc([C@@H]7CC[C@H](C)N7C(=O)[C@@H](NC(=O)OC)C(C)C)[nH]c65)cc3-4)c[nH]2)N(C(=O)[C@H](NC(=O)OC)c2ccccc2)C1 [GS-5816] | 0.22 | 0.004 | 0.006 | 0.005 | 0.013 | 0.016 | 0.25 | 0.105 | 0.011 | 0.054 | 0.032 | 0.031 | 0.011 | 0.016 | 0.014 | 8.5 | 0.016 | 3.2 | 0.003 | 0.13 | EC50 [21]: 0.01 nM; EC50 [22]: 0.014 nM; EC50 [23]: 0.21 nM; EC50 [24]: 0.01 nM; EC50 [25]: 0.007 nM; EC50 [26]: 0.009 nM; EC50 [27]: 0.006 nM; EC50 [28]: 0.004 nM; EC50 [32]: 0.016 nM; EC50 [29]: 0.053 nM; EC50 [30]: 0.009 nM; EC50 [31]: 0.008 nM
